Measurements: US5733904A, “Method for prevention and treatment of viral infectious diseases for viral suppression” (priority 1996, dated 1998)

Columns and labels:
[1] = system: Env (gp120) protein, HIV-1 infected MOLT-4 cells; experiment: Suppressive action on expression of Env (gp120) protein on the surface of cells; assay type: cell-based; details: FIG. 3; Env positive cells after 5 days
Procedure: (Suppressive action on expression of Env (gp120) protein on the surface of cells.)
Cells obtained by culturing MOLT-4 (culture condition: 37° C., 5% CO2 /95% air, RPMI medium (GIBCO Corp.) containing 10% FBS) were adjusted to a preferable number of cells (1×10^5 cells/50 μl ). The cell suspension, 50 μl, (infected with MOLT-4 and HIV-1: M.O.I.=1.0) was put in a 96 hole microplate and cultured for 1 hour to infect the cells.
A solution of the compound shown below, 100 μl, was added in each well and cultured for 5 days. The cultured solution was transferred into a plastic tube (Eppendorf Corp.) and centrifuged to collect the cells. The cells were treated with mouse anti-Env gp120 monoclonal antibody (Replingen Inc.) as a primary antibody and FITC (Fluorescein Isothiocyanate) labelled goat anti-mouse IgG (Cappel Corp.) as a secondary antibody to fluoresce. The number of fluorescent cells was fluoroscopically calculated by counting fluorescent cells according to an indirect fluorescent antibody technique (Techniques in HIV Research, Ed. A. Aldoriny and B. D. Walker, Stokton Press, New York, 1990).
Env positive cells (%) was calculated by the following equation:
Env positive cells (%)=(FITC) positive cells/total cells)×100
Compounds: FAS, H-7 and KN-62.
Control: solution without compound was used.

HIV-1 = experiment: Comparison of suppressive activity of HIV proliferation with FAS and other anti-HIV drugs (syncytium formation); assay type: cell-based
Procedure: Comparison of suppressive activity of HIV proliferation with FAS and other anti-HIV drugs.
Experiments were conducted by the same method as in Example 3.
The medicaments used in this experiment were compounds of the present invention (FAS, and a compound of formula [I] where R^1 is hydroxy as in the above-mentioned Japanese Patent Unexamined Publication No. 61-152658), ddI (Sigma Corp.) and AZT (Sigma Corp.) which are used as medicaments for the treatment of AIDS, and dextran sulfate (Sigma Corp.).

rabbit plasma = experiment: Blood coagulation time (APTT, PT); set-up: species or system rabbit (male, Japanese white); details: for PT / APTT: N=4, mean ± S.E.; for PT: control 7.3 ± 0.4; for APTT: control 16.9 ± 0.8
Procedure: a) Blood coagulation time:
Rabbits (male, Japanese white, body weight 2-3 kg, Oriental Yeast Co.) were used. […] After adding the test compound to the resultant plasma, activated partial thromboplastin time (APTT) and prothrombin time (PT) were measured by using a coagulometer (Coagtec, Coagtec TE600, EMRA; KC-10A, Baxter).

Acute toxicity in mice = experiment: Acute toxicity in mice; set-up: species or system mouse (Slc: ddy, 5 weeks); details: mouse, in vivo, iv, i. v., male
Procedure: Acute toxicity of the compounds of the present invention were conducted on rats and mice, and low toxicity was confirmed.

[2] = system: Herpes simplex virus type I; experiment: Inhibitory action for plaque formation of Herpes simplex virus type I; assay type: cell-based; details: mean of two, control 51
Procedure: Experiments were performed according to a method described in Antiviral Chemistry and Chemotherapy, 5 (6), 366-371, 1994 and Experimental Virology, Ed. by NIH Japan alumni assoc., Maruzen Publ. 1982, p. 65-78 or p. 331-340.
Vero cells cultured in the medium (Dulbecco's modified MEM added with 10% FBS) were detached by trypsin (Sigma Corp.). The detached cells were suspended by 2×10^5 cells/ml in the same medium, and placed in the wells of a 48 hole plate. The plate was incubated at 37° C. under 5% CO2 for about one day to complete a full-sheet of the cells in all wells. After incubation, cultured supernatant was removed. A solution (50 μl) containing the compound diluted with 4-fold stepwise dilution by virus culture medium (MM: Dulbecco's modified MEM added with 2% FBS), was added thereto.
A viral solution, 50 μl, in which the number of virus (parainfluenza virus or Herpes simplex virus type I) was adjusted to about 50 pfu (plaque forming unit)/50 μl by MM, was added to each well. MM 400 μl containing 1% methylcellulose was added in each well to provide a compound-added test group. A control group was prepared by adding the viral culture medium without adding the test compound.
The groups were incubated at 37° C. under 5% CO2 for three days to form plaques and the number of plaques in each well was counted.
The test compounds were FAS, and the compound of formula [I] where R^1 is hydroxy. The final concentration of the compound in the solution was set to 100, 25, 6.3 and 1.6 μg/ml, respectively. Each test group included 2 wells and a mean of the plaque numbers was obtained.

[3] = system: myosin light chain kinase; details: Cranial Nerve, 45 (9), 819-824, 1993; cited from earlier work
C kinase = details: Cranial Nerve, 45 (9), 819-824, 1993; cited from earlier work

Cl.O=S(=O)(c1cccc2cnccc12)N1CCCNCC1 [FAS, hexahydro-1-(5-isoquinoline-sulfonyl)-1H-1,4-diazepine hydrochloride]
inhibitory activity for Env expression [1]: strong inhibitory activity for Env expression | inhibitory activity of syncytium formation of HIV-1 (HIV-1): higher sensitivity than dextran sulfate, ddI and AZT | IC50 (HIV-1; Human immunodeficiency virus 1, FIG. 5, approximate, read-out: 50% inhibitory concentration, syncytium formation): ~800 nM | effect on blood coagulation time (APTT, PT) (rabbit plasma): no effect on blood coagulation time | PT (rabbit plasma; 10 μM): 7.1 ± 0.6 s | APTT (rabbit plasma; 10 μM): 16.4 ± 0.8 s | PT (rabbit plasma; 30 μM): 7.1 ± 0.5 s | APTT (rabbit plasma; 30 μM): 16.0 ± 0.8 s | PT (rabbit plasma; 100 μM): 7.6 ± 0.9 s | APTT (rabbit plasma; 100 μM): 16.3 ± 0.8 s | LD50 (Acute toxicity in mice): 63.7 mg/kg | Plaque No. ([2]; 1.6 μg/ml): 51 | Plaque No. ([2]; 6.3 μg/ml): 46 | Plaque No. ([2]; 25 μg/ml): 49 | Plaque No. ([2]; 100 μg/ml): 0 | myosin light chain kinase inhibition [3]: myosin light chain kinase inhibition | C kinase inhibition (C kinase): C kinase inhibition
